From the SangsterLogP compilation

test: not given

SMILES	logP
N#Cc1ccc(-c2nccnc2-c2ccc(C#N)cc2)cc1	2.52
Cc1nc(C)c(-c2ccccc2)nc1-c1ccccc1	4.83
c1ccc(-c2nccnc2-c2ccccc2)cc1	3.19
COc1ccc(-c2ncc(C)nc2-c2ccc(OC)cc2)cc1	3.66
CCOc1cnc(-c2ccc(OC)cc2)c(-c2ccc(OC)cc2)n1	4.22
Cc1c[n+]([O-])c(C)c(Cl)n1	0.44
CC(C)c1cnc(-c2ccccc2)c(-c2ccccc2)n1	4.71
COc1ccc(-c2ncc(Cl)nc2-c2ccc(OC)cc2)cc1	4.3
Brc1ccc(-c2nccnc2-c2ccc(Br)cc2)cc1	3.41
Cc1cnc(-c2ccccc2)c(-c2ccccc2)n1	3.52
Fc1ccc(-c2nccnc2-c2ccc(F)cc2)cc1	3.75
COc1ccc(-c2ncc(OC)nc2-c2ccc(OC)cc2)cc1	4.47
COc1cnc(-c2ccccc2)c(-c2ccccc2)n1	4.21
Clc1cnc(-c2ccccc2)c(-c2ccccc2)n1	4.05
Cc1nc(Cl)c(C)[n+]([O-])c1Cl	1.08
COC(=O)c1cnc(-c2ccc(OC)cc2)c(-c2ccc(OC)cc2)n1	3.41
Cc1nc(Cl)c(C)nc1Cl	2.4
CCOc1cnc(-c2ccccc2)c(-c2ccccc2)n1	4.73
Cc1nc(-c2ccccc2)cnc1-c1ccccc1	4.28
[O-][n+]1cc(Cl)nc(-c2ccc(Cl)cc2)c1-c1ccc(Cl)cc1	3.66
CCc1nc(-c2ccccc2)cnc1-c1ccccc1	4.94
COc1ccc(-c2ncc(C#N)nc2-c2ccc(OC)cc2)cc1	3.7
COc1ccccc1Cc1cnc(-c2ccccc2)c(-c2ccccc2)n1	5.2
COc1ccc(-c2nc(C)c(C)nc2-c2ccc(OC)cc2)cc1	4.1
COc1ccc(-c2nccnc2-c2ccc(OC)cc2)cc1	3.42
Cc1ccc(-c2nccnc2-c2ccc(C)cc2)cc1	4.1
Cc1ncc(C)[n+]([O-])c1Cl	0.19

test: method code SF-HPLC, from DOI: 10.1021/js990112s, PMID: 10585226

SMILES	logP
COc1ccc(-c2cnccn2)cc1	2.24
c1ccc(-c2cnccn2)cc1	2.07
